# Measurements reported in ChEMBL document CHEMBL3885881, “DrugMatrix”.
# Species on record: Rattus norvegicus
# Type: toxicity, organism-based, Sprague-Dawley
# Settings: in vivo, ip, route intraperitoneal, vehicle 100 % SALINE; for ABSOLUTE EOSINOPHIL / ABSOLUTE LYMPHOCYTE / ABSOLUTE MONOCYTE / ABSOLUTE SEGMENTED NEUTROPHIL / BASOPHIL / EOSINOPHIL / ERYTHROCYTE COUNT / HEMATOCRIT / HEMOGLOBIN / LEUKOCYTE COUNT / LYMPHOCYTE / MEAN CORPUSCULAR HEMOGLOBIN / MEAN CORPUSCULAR HEMOGLOBIN CONCENTRATION / MEAN CORPUSCULAR VOLUME / MONOCYTE / NEUTROPHIL / NUCLEATED RED BLOOD CELLS / PLATELET COUNT: tissue Blood; for ALANINE AMINOTRANSFERASE / ALBUMIN / ALKALINE PHOSPHATASE / ASPARTATE AMINOTRANSFERASE / BLOOD UREA NITROGEN / CARBON DIOXIDE / CHLORIDE / CHOLESTEROL / CREATINE PHOSPHOKINASE / CREATININE / GLUCOSE / LACTATE DEHYDROGENASE / LIPASE / PHOSPHORUS / POTASSIUM / SODIUM / TOTAL BILIRUBIN / TOTAL PROTEIN / URIC ACID: tissue Plasma
# [1] = 16 mg/kg, 24 h, dose level Low, time 1 day
# [2] = 25 mg/kg, 6 h, dose level M1, time 0.25 day
# [3] = 25 mg/kg, 24 h, dose level M1, time 1 day
# Description: DrugMatrix - Regimen: Single
structure (smiles),measurement,setting,value
C=CCO [ALLYL ALCOHOL],ABSOLUTE EOSINOPHIL,[1],29.33 CELLS/uL
same,ABSOLUTE LYMPHOCYTE,[1],15204.83 CELLS/uL
same,ABSOLUTE MONOCYTE,[1],174.67 CELLS/uL
same,ABSOLUTE SEGMENTED NEUTROPHIL,[1],841.17 CELLS/uL
same,BASOPHIL,[1],0%
same,EOSINOPHIL,[1],0.17%
same,ERYTHROCYTE COUNT,[1],5.13 x10E6/uL
same,HEMATOCRIT,[1],33.13%
same,HEMOGLOBIN,[1],12.85 G/DL
same,LEUKOCYTE COUNT,[1],16.25 x10E3/uL
same,LYMPHOCYTE,[1],93.83%
same,MEAN CORPUSCULAR HEMOGLOBIN,[1],25.02 pg
same,MEAN CORPUSCULAR HEMOGLOBIN CONCENTRATION,[1],38.82 G/DL
same,MEAN CORPUSCULAR VOLUME,[1],64.5 fL
same,MONOCYTE,[1],1%
same,NEUTROPHIL,[1],5%
same,NUCLEATED RED BLOOD CELLS,[1],0.33 /100WBC
same,PLATELET COUNT,[1],1056.83 x10E3/uL
same,ALANINE AMINOTRANSFERASE,[1],50.67 u/L
same,ALBUMIN,[1],4.33 G/DL
same,ALKALINE PHOSPHATASE,[1],273.5 u/L
same,ASPARTATE AMINOTRANSFERASE,[1],75.83 u/L
same,BLOOD UREA NITROGEN,[1],11.17 mg/dL
same,CARBON DIOXIDE,[1],27.5 mmol/L
same,CHLORIDE,[1],101.83 MEQ/L
same,CHOLESTEROL,[1],67 mg/dL
same,CREATINE PHOSPHOKINASE,[1],299.83 u/L
same,CREATININE,[1],0.18 mg/dL
same,GLUCOSE,[1],166.33 mg/dL
same,LACTATE DEHYDROGENASE,[1],243.17 u/L
same,LIPASE,[1],9.67 u/L
same,PHOSPHORUS,[1],10.5 mg/dL
same,POTASSIUM,[1],5.58 MEQ/L
same,SODIUM,[1],147.05 MEQ/L
same,TOTAL BILIRUBIN,[1],0.15 mg/dL
same,TOTAL PROTEIN,[1],5.87 G/DL
same,URIC ACID,[1],1.25 mg/dL
same,ABSOLUTE EOSINOPHIL,[2],0 CELLS/uL
same,ABSOLUTE LYMPHOCYTE,[2],12514.83 CELLS/uL
same,ABSOLUTE MONOCYTE,[2],196.67 CELLS/uL
same,ABSOLUTE SEGMENTED NEUTROPHIL,[2],2271.83 CELLS/uL
same,BASOPHIL,[2],0%
same,EOSINOPHIL,[2],0%
same,ERYTHROCYTE COUNT,[2],5.42 x10E6/uL
same,HEMATOCRIT,[2],35.1%
same,HEMOGLOBIN,[2],13.58 G/DL
same,LEUKOCYTE COUNT,[2],14.98 x10E3/uL
same,LYMPHOCYTE,[2],83.83%
same,MEAN CORPUSCULAR HEMOGLOBIN,[2],25.07 pg
same,MEAN CORPUSCULAR HEMOGLOBIN CONCENTRATION,[2],38.7 G/DL
same,MEAN CORPUSCULAR VOLUME,[2],64.73 fL
same,MONOCYTE,[2],1.33%
same,NEUTROPHIL,[2],14.83%
same,NUCLEATED RED BLOOD CELLS,[2],0 /100WBC
same,PLATELET COUNT,[2],1079 x10E3/uL
same,ALANINE AMINOTRANSFERASE,[2],87.5 u/L
same,ALBUMIN,[2],4.43 G/DL
same,ALKALINE PHOSPHATASE,[2],238.5 u/L
same,ASPARTATE AMINOTRANSFERASE,[2],133.17 u/L
same,BLOOD UREA NITROGEN,[2],10.33 mg/dL
same,CARBON DIOXIDE,[2],27.67 mmol/L
same,CHLORIDE,[2],101.5 MEQ/L
same,CHOLESTEROL,[2],58.83 mg/dL
same,CREATINE PHOSPHOKINASE,[2],180 u/L
same,CREATININE,[2],0.12 mg/dL
same,GLUCOSE,[2],158.17 mg/dL
same,LACTATE DEHYDROGENASE,[2],175.17 u/L
same,LIPASE,[2],10.67 u/L
same,PHOSPHORUS,[2],11.65 mg/dL
same,POTASSIUM,[2],5.53 MEQ/L
same,SODIUM,[2],144.52 MEQ/L
same,TOTAL BILIRUBIN,[2],0.12 mg/dL
same,TOTAL PROTEIN,[2],5.95 G/DL
same,URIC ACID,[2],1.33 mg/dL
same,ABSOLUTE EOSINOPHIL,[3],41.33 CELLS/uL
same,ABSOLUTE LYMPHOCYTE,[3],12363.17 CELLS/uL
same,ABSOLUTE MONOCYTE,[3],291.83 CELLS/uL
same,ABSOLUTE SEGMENTED NEUTROPHIL,[3],987 CELLS/uL
same,BASOPHIL,[3],0%
same,EOSINOPHIL,[3],0.33%
same,ERYTHROCYTE COUNT,[3],5.25 x10E6/uL
same,HEMATOCRIT,[3],35.35%
same,HEMOGLOBIN,[3],13.55 G/DL
same,LEUKOCYTE COUNT,[3],13.68 x10E3/uL
same,LYMPHOCYTE,[3],90.33%
same,MEAN CORPUSCULAR HEMOGLOBIN,[3],25.85 pg
same,MEAN CORPUSCULAR HEMOGLOBIN CONCENTRATION,[3],38.38 G/DL
same,MEAN CORPUSCULAR VOLUME,[3],67.32 fL
same,MONOCYTE,[3],2.17%
same,NEUTROPHIL,[3],7.17%
same,NUCLEATED RED BLOOD CELLS,[3],0.33 /100WBC
same,PLATELET COUNT,[3],960.33 x10E3/uL
same,ALANINE AMINOTRANSFERASE,[3],143 u/L
same,ALBUMIN,[3],4.27 G/DL
same,ALKALINE PHOSPHATASE,[3],289.67 u/L
same,ASPARTATE AMINOTRANSFERASE,[3],211.17 u/L
same,BLOOD UREA NITROGEN,[3],12.5 mg/dL
same,CARBON DIOXIDE,[3],28.33 mmol/L
same,CHLORIDE,[3],100.67 MEQ/L
same,CHOLESTEROL,[3],75.17 mg/dL
same,CREATINE PHOSPHOKINASE,[3],317.5 u/L
same,CREATININE,[3],0.22 mg/dL
same,GLUCOSE,[3],148.33 mg/dL
same,LACTATE DEHYDROGENASE,[3],194.67 u/L
same,LIPASE,[3],9.33 u/L
same,PHOSPHORUS,[3],11.4 mg/dL
same,POTASSIUM,[3],6.21 MEQ/L
same,SODIUM,[3],147.37 MEQ/L
same,TOTAL BILIRUBIN,[3],0.17 mg/dL
same,TOTAL PROTEIN,[3],5.9 G/DL
same,URIC ACID,[3],1.15 mg/dL
